Data taken from ChEMBL document CHEMBL2007661, “Compounds: GSK PKIS; Assays: UNC Frye lab” (2012).
Several values for one entry are separate records, joined by “and”; a condition that tells them apart may be missing. Identical values can stand only once.

Experiments:
Settings in all cases: at 1 µM
[1] = target: T1, Inhibitor of nuclear factor kappa-B kinase subunit alpha (Homo sapiens) (UniProt O15111)
T1 sequence (whole entry): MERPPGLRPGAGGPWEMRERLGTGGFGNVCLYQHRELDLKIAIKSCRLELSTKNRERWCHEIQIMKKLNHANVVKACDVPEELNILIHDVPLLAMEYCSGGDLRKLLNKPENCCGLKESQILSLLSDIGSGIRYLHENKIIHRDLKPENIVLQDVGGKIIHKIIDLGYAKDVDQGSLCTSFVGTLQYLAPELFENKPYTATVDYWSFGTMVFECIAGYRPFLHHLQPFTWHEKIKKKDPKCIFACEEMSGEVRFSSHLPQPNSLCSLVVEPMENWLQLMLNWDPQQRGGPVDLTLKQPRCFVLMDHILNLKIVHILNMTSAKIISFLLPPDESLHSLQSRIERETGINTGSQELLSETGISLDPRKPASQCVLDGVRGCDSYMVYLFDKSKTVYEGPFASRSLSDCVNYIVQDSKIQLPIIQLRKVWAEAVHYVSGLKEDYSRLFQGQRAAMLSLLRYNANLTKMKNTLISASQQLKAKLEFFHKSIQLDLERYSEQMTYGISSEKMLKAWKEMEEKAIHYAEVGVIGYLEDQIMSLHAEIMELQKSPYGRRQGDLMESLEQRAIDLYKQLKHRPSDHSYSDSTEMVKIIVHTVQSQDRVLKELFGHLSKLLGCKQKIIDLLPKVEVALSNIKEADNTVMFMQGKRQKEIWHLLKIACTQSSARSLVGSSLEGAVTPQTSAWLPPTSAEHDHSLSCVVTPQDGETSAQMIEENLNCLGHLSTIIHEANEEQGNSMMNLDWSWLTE

[2] = target: T2, Inhibitor of nuclear factor kappa-B kinase subunit beta (Homo sapiens) (UniProt O14920)
T2 sequence (whole entry): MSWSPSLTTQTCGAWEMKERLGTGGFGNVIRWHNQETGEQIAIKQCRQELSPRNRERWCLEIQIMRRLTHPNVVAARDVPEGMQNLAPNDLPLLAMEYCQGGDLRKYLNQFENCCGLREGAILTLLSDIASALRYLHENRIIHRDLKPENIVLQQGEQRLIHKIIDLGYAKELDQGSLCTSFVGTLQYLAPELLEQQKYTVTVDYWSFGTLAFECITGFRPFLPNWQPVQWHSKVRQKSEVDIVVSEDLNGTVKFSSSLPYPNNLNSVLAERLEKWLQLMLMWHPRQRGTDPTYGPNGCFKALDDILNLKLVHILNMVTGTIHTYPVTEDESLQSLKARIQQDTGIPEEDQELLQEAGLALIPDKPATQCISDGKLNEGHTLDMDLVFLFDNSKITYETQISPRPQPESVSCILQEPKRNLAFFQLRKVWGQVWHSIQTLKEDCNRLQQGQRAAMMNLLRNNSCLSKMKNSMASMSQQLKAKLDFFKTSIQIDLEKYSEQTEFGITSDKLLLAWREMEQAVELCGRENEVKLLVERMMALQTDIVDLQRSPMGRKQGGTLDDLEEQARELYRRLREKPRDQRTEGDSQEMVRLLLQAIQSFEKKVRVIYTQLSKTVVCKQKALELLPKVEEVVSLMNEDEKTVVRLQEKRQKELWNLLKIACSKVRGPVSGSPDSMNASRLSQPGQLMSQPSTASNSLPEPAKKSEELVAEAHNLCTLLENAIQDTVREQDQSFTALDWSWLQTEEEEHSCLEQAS

[3] = target: T3, Serine/threonine-protein kinase TBK1 (Homo sapiens) (UniProt Q9UHD2)
T3 sequence (whole entry): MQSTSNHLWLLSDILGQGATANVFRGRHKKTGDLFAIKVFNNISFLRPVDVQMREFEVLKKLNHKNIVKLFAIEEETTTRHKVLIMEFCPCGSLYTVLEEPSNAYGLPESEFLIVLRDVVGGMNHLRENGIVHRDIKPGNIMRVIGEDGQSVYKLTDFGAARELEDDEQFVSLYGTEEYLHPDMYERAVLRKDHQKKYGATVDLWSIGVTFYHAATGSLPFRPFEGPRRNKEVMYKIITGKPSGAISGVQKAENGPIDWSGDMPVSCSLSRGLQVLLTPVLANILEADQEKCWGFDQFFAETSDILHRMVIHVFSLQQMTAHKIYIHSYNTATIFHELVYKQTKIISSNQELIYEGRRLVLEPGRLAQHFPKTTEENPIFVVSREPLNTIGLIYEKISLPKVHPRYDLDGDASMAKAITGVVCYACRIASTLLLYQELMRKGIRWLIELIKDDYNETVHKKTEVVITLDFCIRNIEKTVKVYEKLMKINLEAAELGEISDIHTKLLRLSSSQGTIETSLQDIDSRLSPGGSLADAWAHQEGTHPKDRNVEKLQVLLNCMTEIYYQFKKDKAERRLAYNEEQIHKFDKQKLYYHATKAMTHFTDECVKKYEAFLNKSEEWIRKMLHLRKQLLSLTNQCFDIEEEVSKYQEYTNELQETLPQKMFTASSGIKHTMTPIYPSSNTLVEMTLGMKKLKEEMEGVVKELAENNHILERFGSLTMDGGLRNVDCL

SMILES	inhibition [1]	inhibition [2]	inhibition [3]
CC1=C(C(=O)Nc2ccc3[nH]nc(C)c3c2)C(c2ccc(C(F)(F)F)cc2)CC(=O)N1 (stereo not drawn)	4% and 5%	6% and 0%	-5% and -3%
O=S(=O)(CCOCc1ccc(-c2ccc3ncnc(Nc4ccc(OCc5cccc(F)c5)c(Cl)c4)c3c2)o1)c1ccccc1	0%	-2% and -4%	-2% and 1%
O=C1NC(=O)C(c2cccc(Cl)c2)=C1Nc1ccc(Cl)c(C(=O)O)c1	-6% and 2%	-8% and -3%	19% and 18%
CCS(=O)(=O)c1ccc(OC)c(Nc2ncc(-c3cccc(-c4ccccc4F)c3)o2)c1	-3% and 14%	1% and 2%	13%
COc1cc2ncn(-c3cc(O[C@@H](C)c4ccccc4Cl)c(C(N)=O)s3)c2cc1OC	0% and 1%	1%	54% and 57%
CCN1CCC(C(=O)Nc2n[nH]c3nnc(-c4cccc(F)c4F)cc23)CC1	4% and 3%	-2% and -4%	-3% and -6%
Cc1ccc2c(-c3ccnc(Nc4cccc(C(F)(F)F)c4)n3)c(-c3ccccc3)nn2n1	6% and 4%	-3% and -6%	-1% and 1%
Cc1ccc(C(=O)NC2CCC2)cc1-c1ccc(C(=O)NCC2CC2)cc1	4%	-7% and -4%	-4% and -6%
Fc1ccc(-c2nc3n(c2-c2ccncc2)CCS3)cc1	11% and -1%	-2% and 0%	-4% and 3%
Nc1nccc(-c2c(-c3ccc(F)cc3)ncn2CCCN2CCOCC2)n1	6% and 5%	-5% and -8%	0% and 1%
CS(=O)(=O)CCNCc1ccc(-c2ccc3ncnc(Nc4ccc(OCc5cccc(C(F)(F)F)c5)cc4)c3c2)o1	-1% and 0%	0% and -1%	-3% and -1%
NS(=O)(=O)c1cccc(-c2ccc3c(NC(=O)C4CC4)n[nH]c3c2)c1	1% and 2%	-3% and -1%	2% and 1%
COc1ccc(-c2nn3ncccc3c2-c2ccnc(Nc3ccc(F)c(F)c3)n2)cc1	8% and 4%	-7% and -1%	-6% and -9%
CCOc1ccc2c(-c3ccnc(Nc4cc(OC)cc(C(F)(F)F)c4)n3)cnn2n1	4% and -1%	-1%	51% and 43%
N#Cc1c(NC(=O)c2ccc(F)cc2)sc2c1CCCC2	0% and 2%	-2%	-4% and -6%
COC(=O)c1cncc(/C=C/c2c(C)cc(O)cc2C)c1	3% and 2%	-4% and -5%	-1% and 2%
CCCN1CCC(Oc2cc(Nc3nc(Nc4cccc(F)c4C(N)=O)c4cc[nH]c4n3)c(OC)cc2Cl)CC1	-1% and 2%	-5% and -1%	0% and -3%
c1cnn2ncc(-c3ccnc(NCCCN4CCOCC4)n3)c2c1	2% and 1%	-2%	-2% and -4%
COc1ccc(-c2coc3ncnc(N)c23)cc1	0% and 1%	-3% and -1%	-7% and -5%
N#Cc1c(NC(=O)c2cccc3ccccc23)sc2c1CCCC2	2% and -1%	-2% and 0%	-4% and -3%
COc1cc2c(cc1Nc1nc(Nc3cccc(F)c3C(N)=O)c3cc[nH]c3n1)N(C(=O)CN1CCN(C(C)C)CC1)CC2	4% and 5%	-1% and -3%	-2% and -6%
CCn1c(-c2nonc2N)nc2ccc(F)cc21	2%	5% and 1%	2% and 1%
NC(=O)c1cccc(Nc2nccc(Nc3cccc(F)c3)n2)c1	4% and 2%	-4% and -3%	6% and 11%
CS(=O)(=O)CCNCc1ccc(-c2ccc3ncnc(Nc4ccc(OCc5ccccc5)c(Br)c4)c3c2)o1	3% and 2%	-1% and -2%	0% and 1%
CCn1c(-c2nonc2N)nc2cncc(C(=O)N3CCNCC3)c21	2% and 0%	13% and -2%	3% and 0%
Nc1nccc(-c2c(-c3ccc(F)cc3)ncn2C2CCC(O)CC2)n1 (stereo not drawn)	4% and 10%	-2% and -3%	0% and -2%
